{"source": "patent US11596626B2", "about": "“Compound for use against pathogenic Neisseria and Haemophilus species and Moraxella catarrhalis” (priority 2017, dated 2023)", "key": {"HeLa cells": {"tested_on": "HeLa cells", "assay": "MTT assay of metabolic activity (cytotoxicity)", "format": "cell-based, human", "experimental": "HeLa cells in 24-well plate were incubated for 24 h with concentrations of 0.5 to 10 μM NQNO or solvent (DMSO) as a control. Metabolic activity as a measure of mitochondrial respiration was recorded using 3-(4,5-Dimethylthiazol-2-yl)-2,5-diphenyltetrazoliumbromid (MTT) as reporting agent, Activity was measured with a plate reader at 550 nm, (FIG. 6). Shown are mean values+/S.D. of four replicate wells.\nHeLa S3 cells were cultivated in Dulbecco's modified Eagle's medium (DMEM) medium supplemented with 10% fetal calf serum and passaged every 2-3 days. Primary human vaginal epithelial cells (hVEC/MS74) were obtained from A. J. Schaeffer (Feinberg School of Medicine, Northwestern University, Chicago, Ill.) and are derived from vaginal tissue of a post-menopausal person. The cell line was created through immortalization of these cells with human papilloma virus 16, E6 and E7 genes according to literature (N. Rajan et. al., Characterization of an immortalized human vaginal epithelial cell line. J Urol 163, 616-622 (2000)). […]\nAll plates were coated overnight at 4° C. with 0.1% gelatine in PBS before use. […] 0D550 was measured using a Thermo Fisher Varioskan Flash spectrophotometer."}, "N. gonorrhoeae": {"tested_on": "N. gonorrhoeae", "assay": "Immunofluorescence staining of upper vaginal tract sections of infected CEAtg mice", "format": "in vivo, Neisseria gonorrhoeae", "conditions": "20 μl of 50 μM 2 h after infection, tissue 20 h later, FIGS. 8 and 9", "experimental": "6 to 8 week old, female CEA-transgenic mice were infected with N. gonorrhoeae. 2 h after infection, the animals were treated with 20 μl buffer containing solvent (DMSO) or 50 μM NQNO (Compound represented by the Formula (5)). 20 h later, the genital tract was excised and cryosections were stained for cell nuclei (Hoechst; blue), human CEA (red) and N. gonorrhoeae (gonococci, green) (FIG. 8).\nAdditional cryosections from the same samples were stained for cell nuclei (Hoechst; blue), human collagen (red) and N. gonorrhoeae (gonococci, green) (FIG. 9).\nIn particular, in the above experiments the genital tract of infected mice was excised and immediately fixed with 4% paraformaldehyde for at least 24 h. The fixed tissue was sequentially transferred to 10% sucrose, 0.05% cacodylic acid for 1 h at 4° C., to 20% sucrose for 1 h at 4° C., and then into 30% sucrose at 4° C. overnight. Organs were mounted in the embedding medium (Cryo-M-Bed; Bright Instrument, Huntingdon, UK) and frozen at −20° C. 10 μm thick sections were cut at −20° C. using a cryostat (Vacutom HM500, Microm, Germany). Sections were stained with a mouse monoclonal antibody against collagen type IV (clone M3F7; dilution 1:200) together with a polyclonal rabbit antibody against N. gonorrhoeae (dilution 1:100). […]"}, "Lactobacillus brevis": {"tested_on": "Lactobacillus brevis", "assay": "Growth curves in liquid culture (optical density) vs DMSO control", "format": "cell-based", "conditions": "5-50 μM, FIG. 4", "experimental": "Growth experiments with NQNO were conducted against Neisseria gonorrhoeae strain MS11 (Edwards, M., et al., Antigenic analysis of gonococcal pili using monoclonal antibodies, J Exp Med, 1984. 160(6): p. 1782-91) and a multidrug-resistant N. gonorrhoeae isolate from Slovenia (Unemo M, Golparian O, Potočnik M, Jeverica S. Treatment failure of pharyngeal gonorrhoea with internationally recommended first-line ceftriaxone verified in Slovenia, September 2011. Euro Surveill. 2012; 17(25):pii=20200), Neisseria macacae, and Lactobacillus brevis. The bacteria were inoculated in GC (Difco™ GC medium Ref. 228950, BD Becton Dickinson) and PPM broth (15 g/L Proteon Pepton, 1 g/L soluble starch, 5 g/L NaCl, 4 g/L KH2PO4, 1 g/L K2HPO4, pH 7.5) (Neisseriae) or TSB (BBL™ Trypticase Soy Broth Ref 211768, BD Becton Dickinson) (Lactobacillus) supplemented with solvent (DMSO) or the indicated concentrations of NQNO (5-50 04) and their growth at 37° C. was monitored over the course of 10 h by optical density readings in 30 minute intervals. […]\nBefore every experiment, bacteria were pre-cultured in 5 ml liquid medium for at least 2 hours then harvested and resuspended in PBS (phosphate buffered saline). Optical density (OD) was determined and a volume equal to an OD of 0.2 was inoculated into 5 ml of the respective medium. […] Optical density was determined every 0.5 h."}, "MS74 cells": {"tested_on": "MS74 cells", "assay": "Microscopic evaluation of treated cells", "format": "cell-based, human", "conditions": "up to 50 μM, 2 days, FIG. 14", "source_text": "FIG. 14: Microscopic evaluation of MS74 cells treated for two days with the indicated concentrations of NQNO compared to DMSO control."}}, "note": "Entries after “also recorded” stand apart in the source; their conditions may differ."}
{"smiles": "CCCCCCCCCc1cc(=O)c2ccccc2n1O", "note": "[NQNO, 1-Hydroxy-2-nonylquinolin-4(1H)-one]", "values": [{"measurement": "Cytotoxicity (metabolic activity, MTT)", "setting": "HeLa cells; 10 μM, up to 24 h, preliminary experiment, FIG. 6", "value": "does not lead to cytotoxicity"}, {"measurement": "Cytotoxicity (metabolic activity, MTT)", "setting": "HeLa cells; up to 10 μM, 48 h, FIG. 12", "value": "did not exhibit signs of cytotoxicity"}, {"measurement": "Gonococci on the mucosal surface (fluorescence microscopy)", "setting": "N. gonorrhoeae", "value": "hardly any gonococci could be detected; also recorded: no gonococci could be detected"}, {"measurement": "Effect on growth", "setting": "Lactobacillus brevis", "value": "did not compromise the growth"}, {"measurement": "Morphology and overall phenotype of cells", "setting": "MS74 cells", "value": "did not change"}]}
